Patent publication US12304916B2, “Thienopyridinyl and thiazolopyridinyl compounds useful as IRAK4 inhibitors” (BRISTOL-MYERS SQUIBB COMPANY, priority 2019, dated 2025)

Experiments:
[1] = system: IL-6 levels in human whole blood stimulated with a TLR2 agonist (lipoteichoic acid); assay: IRAK4 Whole Blood Assay; format: cell-based; conditions: 10 μg/mL lipoteichoic acid for 5 hours, IL-6 readout
Description: Human whole blood containing the anti-coagulant ACD-A was plated in 384-well plate (25 μL/well) and incubated with compounds for 60 minutes at 37° C. in a 5% CO2 incubator. The blood was stimulated with a TLR2 agonist, 10 μg/mL final concentration of lipoteichoic acid (Invivogen, San Diego, CA) in 25 μL RPMI (Gibco) for 5 hours in a 5% CO2 incubator. At the end of the incubation, plates were centrifuged at 2300 rpm for 5 minutes. Supernatants were harvested and analyzed for IL-6 levels by Flow Cytometry beads assay (BD Biosciences, San Jose, CA).

IRAK4 = IRAK4 (Homo sapiens (Human), UniProt Q9NWZ3); assay: IRAK4 Inhibition Assay; format: biochemical; conditions: ATP 500 μM; IRAK4 0.6 nM; 60 min at room temperature
Chain of IRAK4 (Q9NWZ3 whole entry, species assumed): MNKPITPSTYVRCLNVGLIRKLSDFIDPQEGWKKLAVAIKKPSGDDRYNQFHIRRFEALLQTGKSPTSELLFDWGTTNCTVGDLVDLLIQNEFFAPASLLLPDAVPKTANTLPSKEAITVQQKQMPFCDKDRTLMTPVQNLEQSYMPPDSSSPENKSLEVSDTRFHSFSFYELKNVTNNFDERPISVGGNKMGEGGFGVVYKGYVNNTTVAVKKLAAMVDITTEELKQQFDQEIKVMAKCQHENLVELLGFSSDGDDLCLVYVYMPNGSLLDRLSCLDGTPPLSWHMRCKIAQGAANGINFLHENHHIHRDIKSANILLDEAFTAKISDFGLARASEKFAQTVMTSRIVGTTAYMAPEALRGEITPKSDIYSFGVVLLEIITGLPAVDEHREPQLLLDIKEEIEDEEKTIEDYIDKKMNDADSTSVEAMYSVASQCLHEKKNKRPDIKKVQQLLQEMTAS

Compound | EC50 [1] | IC50 (IRAK4)
CC(C)Nc1c(C(=O)NCCc2ccncc2)cnc2sc(-c3ccc(=O)[nH]c3)cc12 [Example 71, 4-(isopropylamino)-2-(6-oxo-1,6-dihydropyridin-3-yl)-N-(2-(pyridin-4-yl)ethyl)thieno[2,3-b]pyridine-5-carboxamide] | > 20000 nM | 5.2 nM
CC(C)Nc1c(C(=O)NCCc2cccnc2)cnc2sc(-c3ccc(=O)[nH]c3)cc12 [Example 72, 4-(isopropylamino)-2-(6-oxo-1,6-dihydropyridin-3-yl)-N-(2-(pyridin-3-yl)ethyl)thieno[2,3-b]pyridine-5-carboxamide] | > 20000 nM | 6.7 nM
CC(C)Nc1c(-c2cn(CC3CC3)nn2)cnc2sc(-c3cncs3)cc12 [Example 78, 5-(1-(cyclopropylmethyl)-1H-1,2,3-triazol-4-yl)-N-isopropyl-2-(thiazol-5-yl)thieno[2,3-b]pyridin-4-amine] | > 20000 nM | 8.8 nM
CC(C)Nc1c(-c2cn(CCCO)nn2)cnc2sc(-c3cncs3)cc12 [Example 79, 3-(4-(4-(isopropylamino)-2-(thiazol-5-yl)thieno[2,3-b]pyridin-5-yl)-1H-1,2,3-triazol-1-yl)propan-1-ol] | > 10000 nM | 2.3 nM
CC(C)Nc1c(-c2cn(CCCO)nn2)cnc2sc(-c3ccc(=O)[nH]c3)cc12 [Example 80, 5-(5-(1-(3-hydroxypropyl)-1H-1,2,3-triazol-4-yl)-4-(isopropylamino)thieno[2,3-b]pyridin-2-yl) pyridin-2(1H)-one] | 420 nM | 5.2 nM
